Literature values, collected in US11559495B1, “Icariin nano-pharmaceutical formulation” (King Abdulaziz University, priority 2022, dated 2023).

What was measured:
[1] = molecular target: cGMP-specific phosphodiesterase type 5 (PDE5) (Homo sapiens, UniProt O76074)
[2] = molecular target: T1, MAO-A (Homo sapiens, UniProt P21397)
T1 sequence (P21397 1-527): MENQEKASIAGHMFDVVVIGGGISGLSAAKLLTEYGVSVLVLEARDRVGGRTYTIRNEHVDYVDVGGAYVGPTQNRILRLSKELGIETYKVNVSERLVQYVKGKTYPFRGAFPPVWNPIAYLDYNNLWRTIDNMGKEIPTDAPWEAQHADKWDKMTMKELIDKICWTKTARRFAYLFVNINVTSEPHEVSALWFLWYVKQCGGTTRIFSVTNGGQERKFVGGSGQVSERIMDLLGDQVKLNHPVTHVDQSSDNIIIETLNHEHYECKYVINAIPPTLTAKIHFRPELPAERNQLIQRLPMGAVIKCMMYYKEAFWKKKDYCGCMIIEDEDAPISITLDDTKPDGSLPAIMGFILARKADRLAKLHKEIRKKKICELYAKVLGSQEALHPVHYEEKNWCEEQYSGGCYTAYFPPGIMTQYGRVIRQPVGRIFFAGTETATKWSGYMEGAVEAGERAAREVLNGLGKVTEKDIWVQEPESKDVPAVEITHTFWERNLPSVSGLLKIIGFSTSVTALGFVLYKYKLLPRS

[3] = molecular target: T2, MAO-B (Homo sapiens, UniProt P27338)
T2 sequence (P27338 1-520): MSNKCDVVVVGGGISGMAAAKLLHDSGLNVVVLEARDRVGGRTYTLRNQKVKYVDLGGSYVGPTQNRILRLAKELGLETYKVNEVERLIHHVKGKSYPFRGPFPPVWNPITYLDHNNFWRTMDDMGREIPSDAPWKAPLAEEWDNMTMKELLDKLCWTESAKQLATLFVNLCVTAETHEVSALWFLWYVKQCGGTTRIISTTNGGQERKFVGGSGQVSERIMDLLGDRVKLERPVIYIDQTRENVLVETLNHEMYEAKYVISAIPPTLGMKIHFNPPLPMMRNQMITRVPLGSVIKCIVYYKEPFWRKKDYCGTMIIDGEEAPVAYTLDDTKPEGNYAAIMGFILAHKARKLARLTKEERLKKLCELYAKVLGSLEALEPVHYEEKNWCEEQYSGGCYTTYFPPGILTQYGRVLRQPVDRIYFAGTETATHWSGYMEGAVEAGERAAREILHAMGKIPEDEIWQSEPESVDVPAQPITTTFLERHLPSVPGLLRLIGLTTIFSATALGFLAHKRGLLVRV

Structure (SMILES): COc1ccc(-c2oc3c(CC=C(C)C)c(O[C@@H]4O[C@H](CO)[C@@H](O)[C@H](O)[C@H]4O)cc(O)c3c(=O)c2O[C@@H]2O[C@@H](C)[C@H](O)[C@@H](O)[C@H]2O)cc1 [ICA, 7-(β-D-Glucopyranosyloxy)-5-hydroxy-4′-methoxy-8-(3-methylbut-2-en-1-yl)-3-(α-L-rhamnopyranosyloxy)flavone]
- PDE5 inhibition [1]: inhibitor
- MAO-A activity inhibition [2]: inhibited
- MAO-B activity inhibition [3]: inhibited
